Each block holds one compound with its values, some of them ahead of it.
Tests used:
Homo sapiens = organism: Homo sapiens; assay: Inhibition of TNF-alpha synthesis in human monocytes; format: functional, organism-based
Rattus norvegicus [1] = organism: Rattus norvegicus; assay: In vitro metabolic stability in rat hepatocytes; format: ADME, Hepatocyte
Cavia porcellus [2] = assay: Percent inhibition of eosinophil infiltration in the guinea pig at 30 uM/kg (ip); format: functional
Rattus norvegicus [3] = organism: Rattus norvegicus; assay: Increased acid secretion in the isolated whole rat stomach; format: functional
[4] = Oral bioavailability in rat; format: ADME, organism-based; settings: in vivo
Canis familiaris [5] = assay: Emetic effect in dog on intravenous administration; format: functional; settings: Canis lupus familiaris
Phosphodiesterase 4 [6] = biological target: T1, Phosphodiesterase 4 (Homo sapiens, UniProt P27815+Q08499+Q07343+Q08493); assay: Percent inhibition of human Phosphodiesterase 4 at 10e-7 M; format: protein assay
Phosphodiesterase 4 [7] = biological target: T1, Phosphodiesterase 4
Description: Inhibition of human Phosphodiesterase 4

Phosphodiesterase 4 [8] = biological target: T1, Phosphodiesterase 4; assay: Inhibition of rolipram binding to PDE4 at 10e-6 M; format: protein assay
Phosphodiesterase 4 [9] = biological target: T1, Phosphodiesterase 4; assay: Inhibition of rolipram binding to PDE4; format: protein assay
Phosphodiesterase 4 [10] = biological target: T1, Phosphodiesterase 4; assay: Inhibition of rolipram binding to PDE4 at 10e-5 M; format: protein assay
Phosphodiesterase 4 [11] = biological target: T1, Phosphodiesterase 4; assay: Percent inhibition of human neutrophil phosphodiesterase 4 at 10e-7 M; format: protein assay
Canis familiaris [12] = assay: Emetic effect in dog after intravenous administration; format: functional; settings: Canis lupus familiaris
Phosphodiesterase 4 [13] = biological target: T1, Phosphodiesterase 4; assay: Inhibition of human neutrophil phosphodiesterase 4; format: protein assay
Phosphodiesterase 4 [14] = biological target: T1, Phosphodiesterase 4; assay: Inhibition of human neutrophil Phosphodiesterase 4; format: protein assay
Cavia porcellus [15] = assay: Percent inhibition of eosinophil infiltration in the guinea pig at 30 uM/kg ip; format: functional
Rattus norvegicus [16] = organism: Rattus norvegicus; assay: In vitro and metabolic stability was determined; format: ADME

- Inhibition (Phosphodiesterase 4 [6]): 16%
Structure (SMILES): COc1ccc2c(Cc3c(Cl)cncc3Cl)nnc(N3CCN(C)CC3)c2c1

- Inhibition (Phosphodiesterase 4 [11]): 17%
Structure (SMILES): COc1ccc2c(Cc3c(Cl)cncc3Cl)nnc(-n3ccnc3)c2c1

- Ki (Phosphodiesterase 4 [9]): 241 nM
- IC50 (Homo sapiens): 72 nM
- Met. stab. Cl. int (Rattus norvegicus [1]): 1.5 ul min-1 (10e6*cells)-1
- IC50 (Phosphodiesterase 4 [13]): 72 nM
- IC50 (Rattus norvegicus [3]): > 30 µM
- bioavailability [4]: 27%
Structure (SMILES): COc1ccc2c(Cc3c(Cl)cncc3Cl)nnc(-n3cncn3)c2c1
- ED50 (Canis familiaris [12]): > 30 µmol/kg
- Inhibition (Cavia porcellus [2]): 37%
- Inhibition (Rattus norvegicus [3]): 33%

- Ki (Phosphodiesterase 4 [9]): 452 nM
- IC50 (Phosphodiesterase 4 [14]): 132 nM
- IC50 (Homo sapiens): 62 nM
Structure (SMILES): COc1ccc2c(Cc3c(Cl)cncc3Cl)nnc(N3CCOCC3)c2c1

- Inhibition (Phosphodiesterase 4 [6]): 39%
Structure (SMILES): COc1ccc2c(Cc3c(Cl)cncc3Cl)nnc(N(C)C)c2c1

- Ki (Phosphodiesterase 4 [9]): 89 nM
- IC50 (Homo sapiens): 9 nM
- IC50 (Phosphodiesterase 4 [7]): 38 nM
Structure (SMILES): COc1ccc2c(Cc3c(Cl)cncc3Cl)nnc(N3CCCC3)c2c1

- Inhibition (Phosphodiesterase 4 [11]): 6%
Structure (SMILES): COc1ccc2c(Cc3c(Cl)cncc3Cl)nnc(N3CCCC3=O)c2c1

- Inhibition (Phosphodiesterase 4 [6]): 23%
Structure (SMILES): CCc1nnc(Cc2c(Cl)cncc2Cl)c2ccc(OC)cc12

The next lines start with the compound.

Structure (SMILES): COc1ccc([C@]2(C#N)CC[C@@H](C(=O)O)CC2)cc1OC1CCCC1 [CILOMILAST]
- IC50 (Homo sapiens): 158 nM
- Met. stab. Cl. int (Rattus norvegicus [1]): 9.2 ul min-1 (10e6*cells)-1
- Inhibition (Cavia porcellus [2]): 17%
- IC50 (Rattus norvegicus [3]): 1 µM
- bioavailability [4]: 35%
- ED50 (Canis familiaris [5]): 10 µmol/kg

Structure (SMILES): COc1ccc2c(Cc3c(Cl)cncc3Cl)nncc2c1OC1CCCC1
- IC50 (Homo sapiens): 224 nM

Structure (SMILES): COc1ccc2c(Cc3c(Cl)cncc3Cl)nnc(C#Cc3ccccc3)c2c1
- IC50 (Homo sapiens): 273 nM
- IC50 (Phosphodiesterase 4 [7]): 48 nM
- Inhibition (Phosphodiesterase 4 [8]): 21%

Structure (SMILES): COc1ccc2c(Cc3c(Cl)c[n+]([O-])cc3Cl)nnc(-c3nccs3)c2c1
- Ki (Phosphodiesterase 4 [9]): 17 nM
- IC50 (Homo sapiens): 3 nM
- IC50 (Phosphodiesterase 4 [7]): 4 nM

Structure (SMILES): COc1ccc2c(Cc3c(Cl)cncc3Cl)nncc2c1
- Inhibition (Phosphodiesterase 4 [10]): 42%

Structure (SMILES): COc1ccc2c(Cc3c(Cl)cncc3Cl)nnc(-c3nccs3)c2c1
- Ki (Phosphodiesterase 4 [9]): 34 nM
- IC50 (Homo sapiens): 8 nM
- IC50 (Phosphodiesterase 4 [7]): 14 nM

Structure (SMILES): C#Cc1nnc(Cc2c(Cl)cncc2Cl)c2ccc(OC)cc12
- Ki (Phosphodiesterase 4 [9]): 204 nM
- IC50 (Homo sapiens): 87 nM
- IC50 (Phosphodiesterase 4 [7]): 93 nM

Structure (SMILES): COc1ccc2c(Cc3c(Cl)cncc3Cl)nnc(CCCCc3ccccc3)c2c1
- Inhibition (Phosphodiesterase 4 [6]): 19%

Structure (SMILES): COc1ccc2c(Cc3c(Cl)cncc3Cl)nnc(Oc3ccccc3)c2c1
- Ki (Phosphodiesterase 4 [9]): 436 nM
- IC50 (Homo sapiens): 166 nM
- IC50 (Phosphodiesterase 4 [13]): 132 nM

Structure (SMILES): CCCNc1nnc(Cc2c(Cl)cncc2Cl)c2ccc(OC)cc12
- Inhibition (Phosphodiesterase 4 [6]): 19%

Structure (SMILES): COc1ccc2c(Cc3c(Cl)cncc3Cl)nnc(-c3ccccc3)c2c1
- Ki (Phosphodiesterase 4 [9]): 271 nM
- Inhibition (Cavia porcellus [15]): 34%
- ED50 (Canis familiaris [12]): > 30 µmol/kg
- IC50 (Homo sapiens): 46 nM
- Met. stab. Cl. int (Rattus norvegicus [16]): 5.8 ul min-1 (10e6*cells)-1
- IC50 (Phosphodiesterase 4 [7]): 37 nM
- IC50 (Rattus norvegicus [3]): 4 µM
- bioavailability [4]: 27%

Source: ChEMBL document CHEMBL1134046, “Phthalazine PDE4 inhibitors. Part 2: the synthesis and biological evaluation of 6-methoxy-1,4-disubstituted derivatives” (Bioorg Med Chem Lett, 2001)
